Test system: RSV A2 virus
Experiment: RSV CPE assay
Details: human respiratory syncytial virus, HEp-2, 120 h, read-out: RSV A2 (Hep-2 cell) EC50

SMILES	EC50 [µM]
CC(C)OC(=O)OCO[P@](=O)(N[C@@H](C)C(=O)OC1CCC1)OC[C@H]1O[C@@](C#N)(c2ccc3c(N)ncnn23)[C@H](OC(=O)C(C)C)[C@@H]1OC(=O)C(C)C [Compound 13b, (2R,3R,4R,5R)-2-(4-aminopyrrolo[2,1-f][1,2,4]triazin-7-yl)-2-cyano-5-((((S)-(((S)-1-cyclobutoxy-1-oxopropan-2-yl)amino)(((isopropoxycarbonyl)oxy)methoxy)phosphoryl)oxy)methyl)tetrahydrofuran-3,4-diyl bis(2-methylpropionate)]	0.2 to 0.5
CC(=O)O[C@H]1[C@@H](OC(C)=O)[C@](C#N)(c2ccc3c(N)ncnn23)O[C@@H]1COP(=O)(OCOC(=O)OC(C)C)OCOC(=O)OC(C)C [Compound 17, (2R,3R,4R,5R)-2-(4-aminopyrrolo[2,1-f][1,2,4]triazin-7-yl)-5-((((bis(((isopropoxycarbonyl)oxy)methoxy)phosphoryl))oxy)methyl)-2-cyanotetrahydrofuran-3,4-diyl diacetate]	0.1 to 0.2
CC(C)OC(=O)OCOP(=O)(OCOC(=O)OC(C)C)OC[C@H]1O[C@@](C#N)(c2ccc3c(N)ncnn23)[C@H](OC(=O)C(C)C)[C@@H]1OC(=O)C(C)C [Compound 19, (2R,3R,4R,5R)-2-(4-aminopyrrolo[2,1-f][1,2,4]triazin-7-yl)-5-((((bis(((isopropoxycarbonyl)oxy)methoxy))phosphoryl)oxy)methyl)-2-cyanotetrahydrofuran-3,4-diyl bis(2-methylpropionate)]	0.2 to 0.5
CC(C)OC(=O)OCOP(=O)(OCOC(=O)OC(C)C)OC[C@H]1O[C@@](C#N)(c2ccc3c(N)ncnn23)[C@H](OC(=O)C(C)(C)C)[C@@H]1OC(=O)C(C)(C)C [Compound 20, (2R,3R,4R,5R)-2-(4-aminopyrrolo[2,1-f][1,2,4]triazin-7-yl)-5-((((bis(((isopropoxycarbonyl)oxy)methoxy))phosphoryl)oxy)methyl)-2-cyanotetrahydrofuran-3,4-diyl bis(2,2-dimethylpropionate)]	> 1
CC(C)OC(=O)OCO[P@@](=O)(OC[C@H]1O[C@@](C#N)(c2ccc3c(N)ncnn23)[C@H](OC(=O)C(C)C)[C@@H]1OC(=O)C(C)C)Oc1ccc(C(C)(C)C)cc1 [Compound 24a, (2R,3R,4R,5R)-2-(4-aminopyrrolo[2,1-f][1,2,4]triazin-7-yl)-5-((((S)-(4-tert-butylphenoxy)(((isopropoxycarbonyl)oxy)methoxy)phosphoryl)oxy)methyl)-2-cyanotetrahydrofuran-3,4-diyl bis(2-methylpropionate)]	> 1
CC(C)C(=O)O[C@H]1[C@@H](OC(=O)C(C)C)[C@](C#N)(c2ccc3c(N)ncnn23)O[C@@H]1COP(=O)(OCOC(=O)C(C)(C)C)OCOC(=O)C(C)(C)C [Compound 29, (2R,3R,4R,5R)-2-(4-aminopyrrolo[2,1-f][1,2,4]triazin-7-yl)-5-((((bis(((tert-butylcarbonyl)oxy)methoxy))phosphoryl)oxy)methyl)-2-cyanotetrahydrofuran-3,4-diyl bis(2-methylpropionate)]	0.5 to 1
CC(C)C(=O)O[C@H]1[C@@H](OC(=O)C(C)C)[C@](C#N)(c2ccc3c(N)ncnn23)O[C@@H]1COP(=O)(OCCSC(=O)C(C)(C)C)OCCSC(=O)C(C)(C)C [Compound 30, (2R,3R,4R,5R)-2-(4-aminopyrrolo[2,1-f][1,2,4]triazin-7-yl)-5-((((bis(2-(pivaloylthio)ethoxy))phosphoryl)oxy)methyl)-2-cyanotetrahydrofuran-3,4-diyl bis(2-methylpropionate)]	0.2 to 0.5
CCC(CC)COC(=O)[C@H](Cc1ccccc1)N[P@@](=O)(OCOC(=O)OC(C)C)OC[C@H]1O[C@@](C#N)(c2ccc3c(N)ncnn23)[C@H](OC(=O)C(C)C)[C@@H]1OC(=O)C(C)C [Compound 31b, (2R,3R,4R,5R)-2-(4-aminopyrrolo[2,1-f][1,2,4]triazin-7-yl)-2-cyano-5-((((S)-(((S)-1-(2-ethylbutoxy)-1-oxo-3-phenylpropan-2-yl)amino)(((isopropoxycarbonyl)oxy)methoxy)phosphoryl)oxy)methyl)tetrahydrofuran-3,4-diyl bis(2-methylpropionate)]	0.2 to 0.5
CCC(CC)COC(=O)C1(N[P@@](=O)(OCOC(=O)OC(C)C)OC[C@H]2O[C@@](C#N)(c3ccc4c(N)ncnn34)[C@H](OC(=O)C(C)C)[C@@H]2OC(=O)C(C)C)CCC1 [Compound 32b, (2R,3R,4R,5R)-2-(4-aminopyrrolo[2,1-f][1,2,4]triazin-7-yl)-2-cyano-5-((((S)-((1-((2-ethylbutoxy)carbonyl)cyclobutyl)amino)(((isopropoxycarbonyl)oxy)methoxy)phosphoryl)oxy)methyl)tetrahydrofuran-3,4-diyl bis(2-methylpropionate)]	0.5 to 1
CCCCCOC(=O)C[C@H](N[P@](=O)(OC[C@H]1O[C@@](C#N)(c2ccc3c(N)ncnn23)[C@H](OC(=O)C(C)C)[C@@H]1OC(=O)C(C)C)Oc1ccccc1)C(=O)OCCCCC [Compound 38b, (2R,3R,4R,5R)-2-(4-aminopyrrolo[2,1-f][1,2,4]triazin-7-yl)-2-cyano-5-((((S)-(((S)-1,4-dipentyloxy-1,4-dioxobutan-2-yl)amino)(phenoxy)phosphoryl)oxy)methyl)tetrahydrofuran-3,4-diyl bis(2-methylpropionate)]	< 0.1
CCCCCOC(=O)C[C@H](N[P@@](=O)(OC[C@H]1O[C@@](C#N)(c2ccc3c(N)ncnn23)[C@H](OC(=O)C(C)C)[C@@H]1OC(=O)C(C)C)Oc1ccc(C(C)(C)C)cc1)C(=O)OCCCCC [Compound 39a, (2R,3R,4R,5R)-2-(4-aminopyrrolo[2,1-f][1,2,4]triazin-7-yl)-2-cyano-5-((((R)-(((S)-1,4-dipentyloxy-1,4-dioxobutan-2-yl)amino)(4-tert-butylphenoxy)phosphoryl)oxy)methyl)tetrahydrofuran-3,4-diyl bis(2-methylpropionate)]	< 0.1
CCCCCOC(=O)C[C@H](N[P@](=O)(OC[C@H]1O[C@@](C#N)(c2ccc3c(N)ncnn23)[C@H](OC(=O)C(C)C)[C@@H]1OC(=O)C(C)C)Oc1ccc(C(C)(C)C)cc1)C(=O)OCCCCC [Compound 39b, (2R,3R,4R,5R)-2-(4-aminopyrrolo[2,1-f][1,2,4]triazin-7-yl)-2-cyano-5-((((S)-(((S)-1,4-dipentyloxy-1,4-dioxobutan-2-yl)amino)(4-tert-butylphenoxy)phosphoryl)oxy)methyl)tetrahydrofuran-3,4-diyl bis(2-methylpropionate)]	< 0.1
CCC(CC)COC(=O)[C@H](Cc1ccccc1)N[P@](=O)(OC[C@H]1O[C@@](C#N)(c2ccc3c(N)ncnn23)[C@H](OC(=O)C(C)C)[C@@H]1OC(=O)C(C)C)Oc1ccccc1 [Compound 41b, (2R,3R,4R,5R)-2-(4-aminopyrrolo[2,1-f][1,2,4]triazin-7-yl)-2-cyano-5-((((S)-(((S)-1-(2-ethylbutoxy)-1-oxo-3-phenylpropan-2-yl)amino)(phenoxy)phosphoryl)oxy)methyl)tetrahydrofuran-3,4-diyl bis(2-methylpropionate)]	< 0.1
CC(C)C(=O)O[C@H]1[C@@H](OC(=O)C(C)C)[C@](C#N)(c2ccc3c(N)ncnn23)O[C@@H]1CO[P@](=O)(N[C@@H](CC(=O)OC1CCC1)C(=O)OC1CCC1)Oc1ccccc1 [Compound 54a, (2R,3R,4R,5R)-2-(4-aminopyrrolo[2,1-f][1,2,4]triazin-7-yl)-2-cyano-5-((((R)-(((S)-1,4-dicyclobutoxy-1,4-dioxobutan-2-yl)amino)(phenoxy)phosphoryl)oxy)methyl)tetrahydrofuran-3,4-diyl bis(2-methylpropionate)]	0.1 to 0.2
CC(C)C(=O)O[C@H]1[C@@H](OC(=O)C(C)C)[C@](C#N)(c2ccc3c(N)ncnn23)O[C@@H]1CO[P@@](=O)(N[C@@H](CC(=O)OC1CCC1)C(=O)OC1CCC1)Oc1ccccc1 [Compound 54b, (2R,3R,4R,5R)-2-(4-aminopyrrolo[2,1-f][1,2,4]triazin-7-yl)-2-cyano-5-((((S)-(((S)-1,4-dicyclobutoxy-1,4-dioxobutan-2-yl)amino)(phenoxy)phosphoryl)oxy)methyl)tetrahydrofuran-3,4-diyl bis(2-methylpropionate)]	< 0.1
CC(C)(C)C(=O)O[C@H]1[C@@H](OC(=O)C(C)(C)C)[C@](C#N)(c2ccc3c(N)ncnn23)O[C@@H]1CO[P@](=O)(N[C@@H](CC(=O)OC1CCC1)C(=O)OC1CCC1)Oc1ccccc1 [Compound 57a, (2R,3R,4R,5R)-2-(4-aminopyrrolo[2,1-f][1,2,4]triazin-7-yl)-2-cyano-5-((((R)-(((S)-1,4-dicyclobutoxy-1,4-dioxobutan-2-yl)amino)(phenoxy)phosphoryl)oxy)methyl)tetrahydrofuran-3,4-diyl bis(2,2-dimethylpropionate)]	0.5 to 1

Same assay, conditions: read-out: RSV A2 (Hep-2 cell) EC50; HEp-2 cells, RSV A2 virus, 5 days, CCK8

SMILES	EC50 [µM]
CCC(CC)COC(=O)[C@H](Cc1ccccc1)N[P@@](=O)(OC[C@H]1O[C@@](C#N)(c2ccc3c(N)ncnn23)[C@H](OC(=O)C(C)C)[C@@H]1OC(=O)C(C)C)Oc1ccc(C(C)(C)C)cc1 [Compound 53a, (2R,3R,4R,5R)-2-(4-aminopyrrolo[2,1-f][1,2,4]triazin-7-yl)-2-cyano-5-((((((S)-1-(2-ethylbutoxy)-1-oxo-3-phenylpropan-2-yl)amino)((R)-4-tert-butylphenoxy)phosphoryl)oxy)methyl)tetrahydrofuran-3,4-diyl bis(2-methylpropionate)]	< 0.1
CCC(CC)COC(=O)[C@H](Cc1ccccc1)N[P@](=O)(OC[C@H]1O[C@@](C#N)(c2ccc3c(N)ncnn23)[C@H](OC(=O)C(C)C)[C@@H]1OC(=O)C(C)C)Oc1ccc(C(C)(C)C)cc1 [Compound 53b, (2R,3R,4R,5R)-2-(4-aminopyrrolo[2,1-f][1,2,4]triazin-7-yl)-2-cyano-5-((((((S)-1-(2-ethylbutoxy)-1-oxo-3-phenylpropan-2-yl)amino)((S)-4-tert-butylphenoxy)phosphoryl)oxy)methyl)tetrahydrofuran-3,4-diyl bis(2-methylpropionate)]	< 0.1
